{
  "source": "patent US20220296604A1",
  "about": "“INDOLE COMPOUNDS AS MODULATORS OF RAGE ACTIVITY AND USES THEREOF” (NEW YORK UNIVERSITY, priority 2019, published 2022)",
  "note": "pKd: −log10 of the molar value.",
  "data": [
    {"biological_target": "T1, RAGE tail (Homo sapiens, UniProt Q15109)", "T1 construct": "The cytoplasmic domain of RAGE, C terminal RAGE or ctRAGE (RAGE tail) is critical for RAGE-dependent signal transduction", "T1 sequence (Q15109 364-404 limits assumed)": "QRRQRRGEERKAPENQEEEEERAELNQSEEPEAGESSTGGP", "assay": "RAGE tail fluorescence titration (fluorescence quenching), Kd determination", "details": "compound titrated into 100 nM solution of RAGE tail, NB = binding not detected", "experimental": "Binding affinities of small molecules for either CT-RAGE or FH1 are determined by performing fluorescence titrations to generate binding isotherms and standard SPR experiments. […]\nCompound D-IIIa was titrated into 100 nM solution of RAGE tail. Fluorescence quenching was used to determine binding. R^2 quality factor of the fitting was 0.94 (FIG. 1).\nCompound D-IIIb was titrated into 100 nM solution of RAGE tail. Fluorescence quenching was used to determine binding. R^2 quality factor of the fitting was 0.97 (FIG. 2).\nCompound D-IIIc was titrated into 100 nM solution of RAGE tail. Fluorescence quenching was used to determine binding. R^2 quality factor of the fitting was 0.98 (FIG. 3).\nCompound D-IIId was titrated into 100 nM solution of RAGE tail. Fluorescence quenching was used to determine binding. R^2 quality factor of the fitting was 0.99 (FIG. 4).\nCompound D-IIIe was titrated into 100 nM solution of RAGE tail. Fluorescence quenching was used to determine binding. R^2 quality factor of the fitting was 0.98 (FIG. 5).\nCompound D-IIIi was titrated into 100 nM solution of RAGE tail. Fluorescence quenching was used to determine binding. R^2 quality factor of the fitting was 0.90 (FIG. 6).\nCompound D-IIIk was titrated into 100 nM solution of RAGE tail. Fluorescence quenching was used to determine binding. R^2 quality factor of the fitting was 0.89 (FIG. 7).\nCompound D-IIIq was titrated into 100 nM solution of RAGE tail. Fluorescence quenching was used to determine binding. R^2 quality factor of the fitting was 0.82 (FIG. 8).\nCompound D-IIIv was titrated into 100 nM solution of RAGE tail. Fluorescence quenching was used to determine binding. R^2 quality factor of the fitting was 0.93 (FIG. 9).\nCompound D-IIIw was titrated into 100 nM solution of RAGE tail. Fluorescence quenching was used to determine binding. R^2 quality factor of the fitting was 0.94 (FIG. 10).\nCompound D-IVa was titrated into 100 nM solution of RAGE tail. Fluorescence quenching was used to determine binding. R^2 quality factor of the fitting was 0.94 (FIG. 11).\nCompound D-IVb was titrated into 100 nM solution of RAGE tail. Fluorescence quenching was used to determine binding. R^2 quality factor of the fitting was 0.93 (FIG. 12).\nCompound D-IVc was titrated into 100 nM solution of RAGE tail. Fluorescence quenching was used to determine binding. R^2 quality factor of the fitting was 0.92 (FIG. 13).\nCompound D-IVd was titrated into 100 nM solution of RAGE tail. Fluorescence quenching was used to determine binding. R^2 quality factor of the fitting was 0.94 (FIG. 14).\nCompound D-IVe was titrated into 100 nM solution of RAGE tail. Fluorescence quenching was used to determine binding. R^2 quality factor of the fitting was 0.93 (FIG. 15).\nCompound D-IVf was titrated into 100 nM solution of RAGE tail. Fluorescence quenching was used to determine binding. R^2 quality factor of the fitting was 0.95 (FIG. 16).\nCompound D-IVg was titrated into 100 nM solution of RAGE tail. Fluorescence quenching was used to determine binding. R^2 quality factor of the fitting was 0.89 (FIG. 17).\nCompound D-IVh was titrated into 100 nM solution of RAGE tail. Fluorescence quenching was used to determine binding. R^2 quality factor of the fitting was 0.93 (FIG. 18).", "values": [
      {"smiles": "Cc1c(C)n(CC(O)CN2CCOCC2)c2ccc(F)cc12", "note": "[Compound D-IIIa, 1-(5-fluoro-2,3-dimethyl-1H-indol-1-yl)-3-morpholinopropan-2-ol]", "pKd": 7.09},
      {"smiles": "Cc1c(C)n(CC(C#N)CN2CCOCC2)c2ccccc12", "note": "[Compound D-IIIb]", "pKd": 8.40},
      {"smiles": "CC(=O)NC(CN1CCOCC1)Cn1c(C)c(C)c2ccccc21", "note": "[Compound D-IIIc, N-(1-(2,3-dimethyl-1H-indol-1-yl)-3-morphohnopropan-2-yl)acetamide]", "pKd": 8.05},
      {"smiles": "Cc1c(C)n(CC(O)CN2CCOCC2)c2cc(F)ccc12", "note": "[Compound D-IIId]", "pKd": 7.26},
      {"smiles": "Cc1c(CC(O)CN2CCOCC2)c2ccccc2n1C", "note": "[Compound D-IIIe, 1-(1,2-dimethyl-1H-indol-3-yl)-3-morpholinopropan-2-ol]", "pKd": 7.70},
      {"smiles": "CC(=O)NC(CN1CCOCC1)Cn1c(C)c(C)c2cc(F)ccc21", "note": "[Compound D-IIIi]", "pKd": 8.05},
      {"smiles": "Cc1c(C)n(CC(CN2CCOCC2)NC(=O)C(C)C)c2ccccc12", "note": "[Compound D-IIIk]", "pKd": 7.21},
      {"smiles": "Cc1c(CC(O)CN2CCOCC2)c2ccccc2n1C(C)C", "note": "[Compound D-IIIq]", "pKd": 7.96},
      {"smiles": "Cc1c(CC(O)CN2CCOCC2)c2ccc(F)cc2n1C", "note": "[Compound D-IIIv]", "pKd": 7.85},
      {"smiles": "Cc1c(C)n(CC(CC#N)CN2CCOCC2)c2ccccc12", "note": "[Compound D-IIIw]", "pKd": 8.37},
      {"smiles": "OC(CN1CCCCC1)Cn1c2c(c3ccccc31)CCCC2", "note": "[Compound D-IVa]", "pKd": 7.14},
      {"smiles": "NC(=O)C1CCCN(CC(O)Cn2c3c(c4ccccc42)CCCC3)C1", "note": "[Compound D-IVb]", "pKd": 7.96},
      {"smiles": "O=C(O)C1CCCN(CC(O)Cn2c3c(c4ccccc42)CCCC3)C1", "note": "[Compound D-IVc]", "pKd": 7.74},
      {"smiles": "Cc1c(C)n(CC(C#N)CN2CCCC(C(=O)O)C2)c2ccccc12", "note": "[Compound D-IVd]", "pKd": 7.92},
      {"smiles": "Cc1c(C)n(CC(C#N)CN2CCCC(C(N)=O)C2)c2ccccc12", "note": "[Compound D-IVe]", "pKd": 8.59},
      {"smiles": "CC(=O)NC(CN1CCCC(C(=O)O)C1)Cn1c(C)c(C)c2ccccc21", "note": "[Compound D-IVf]", "pKd": 8.34},
      {"smiles": "CC(=O)NC(CN1CCCC(C(N)=O)C1)Cn1c(C)c(C)c2ccccc21", "note": "[Compound D-IVg]", "pKd": 7.92},
      {"smiles": "Cc1c(CC(O)CN2CCCC(C(=O)O)C2)c2ccccc2n1C", "note": "[Compound D-IVh]", "pKd": 8.11}
    ]}
  ]
}
